# Entries after “also recorded” stand apart in the source; their conditions may differ.
# Key:
# human sEH = biological target: T1, human sEH (Homo sapiens, UniProt P34913); experiment: Inhibition of recombinant human sEH, IC50 assay with 4-nitrophenyl-trans-2,3-epoxy-3-phenylpropyl carbonate as substrate; assay type: biochemical; conditions: Table 2; […] enzyme, 5 min preincubation, pH 7.4, 30° C.; means ± SD; read-out: IC50 (μM) Human sEH
# T1 construct: made in house; host or cells: baculovirus expression system
# T1 sequence (P34913 1-555): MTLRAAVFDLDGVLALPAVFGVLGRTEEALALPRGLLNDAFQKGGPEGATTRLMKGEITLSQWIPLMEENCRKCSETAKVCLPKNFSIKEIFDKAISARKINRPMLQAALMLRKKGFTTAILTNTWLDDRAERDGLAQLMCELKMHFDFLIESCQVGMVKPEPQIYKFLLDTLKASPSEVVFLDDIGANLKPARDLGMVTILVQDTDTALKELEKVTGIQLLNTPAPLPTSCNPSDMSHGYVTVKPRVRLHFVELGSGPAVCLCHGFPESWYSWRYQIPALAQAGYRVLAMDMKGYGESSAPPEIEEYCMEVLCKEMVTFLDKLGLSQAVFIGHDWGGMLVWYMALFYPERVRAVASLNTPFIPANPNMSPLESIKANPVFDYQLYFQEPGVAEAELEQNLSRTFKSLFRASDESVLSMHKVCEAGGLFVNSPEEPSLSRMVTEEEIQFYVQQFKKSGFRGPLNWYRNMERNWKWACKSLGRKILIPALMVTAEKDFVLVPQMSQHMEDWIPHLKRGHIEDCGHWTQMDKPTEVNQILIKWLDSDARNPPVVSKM
# Experimental: Assays were performed in triplicate. […] The curve was generated from at least three separate runs, each in triplicate, to obtain the standard deviation (SD) given in Table 1 thru Table 4.
# [1] = Cream on index finger of a patient with Raynaud syndrome before cold exposure; assay type: in vivo, human; conditions: cream applied to a finger before cold exposure
# Experimental: The experimental design involved preparing the Vanicream solutions with ethanol with or without active compound, then covering the syringe barrels with aluminum foil. The compounds were applied in a bind fashion approximately 20 minutes before exposure and then the hands were exposed to cold for approximately 30 minutes and the results recorded. The following day the results were decoded. Treatments (left or right index finger) were random. […] The test compounds were dissolved in ethanol at a concentration of 10 mg/mL and this in turn mixed with commercial Vanicream at a 10:1 concentration to give 1 mg/mL final concentration of active ingredient in the Vanicream/ethanol mixture. Approximately 100 μL of cream (±sEH inhibitor) were applied to a single finger. The first two columns indicate that over a range of exposure conditions the results from the left and right […] were similar. […] Since the experiment was run blind, the left and right index fingers were treated in a random fashion. For convenience the treatments are shown on the right in each case. […]
# [2] = Metabolic stability in rat hepatic microsomes with NADPH generating system; assay type: in vitro ADME; conditions: 1 μM, NADPH generating system, FIGS. 6 and 7
# Experimental: FIG. 6 is a graph illustrating the metabolic stabilities of 1-adamantyl-3-dodecyl urea (686) and 1-cyclohexyl-3-dodecyl urea (297) in rat hepatic microsomes. Microsomes were incubated with 1 μM 686 or 297 in the presence of an NADPH generating system. Data are expressed as mean ±SD of triplicate experiments.
# To evaluate the metabolic stability of these inhibitors, the microsomal and NADPH dependent metabolism of a number of potent sEH inhibitors was evaluated. […] The first step in the metabolic transformation of the n-alkyl to n-alkanoic acid derivatives is an NAPDH dependent process carried out by cytochrome P450 dependent omega hydroxylation in rodent and human hepatic tissue preparations (see FIG. 8). When in vivo metabolism was evaluated, evidence for the beta-oxidation of the alkanoic acid derivatives was also found (see FIG. 9).
# [3] = Pharmacokinetics of 687 and 800 in a human subject; assay type: in vivo; conditions: FIG. 11; single oral administration of either 687 or 800 to a human subject
# Experimental: (§1) Serial bled blood samples (3-50 μL) were collected from finger tips into 50 μL heparinized capillary tube at various time points (0.5, 1, 2, 4, 6, 12 and 24 hr) after administration. These samples were used to measure parent compounds and their metabolites using LC-MS/MS as described above for experiments with mice. Blood samples were added 400 μL of distilled water and 25 μL of internal standard (500 ng/mL CTU), and vortexed. The blood samples were then extracted with 500 μL of ethyl acetate twice and the ethyl acetate layer was dried under nitrogen. The residue was reconstituted in 25 μL of methanol, and aliquots (10 μL) were injected onto the LC-MS/MS system as described above. Biological end points came from clinical chemistry samples run at The University of California Davis Clinical Laboratory and a series of 6 inflammatory markers including C reactive protein were run blind at the University of California Davis Department of Nephrology.
# [4] = Pharmacokinetics after oral gavage in mice; assay type: in vivo, mouse; conditions: 5 mg/kg orally
# Experimental: Animals. Male Swiss Webster mice, 6 weeks-old, were obtained from Charles River (Calif., USA). […] The body weight of animals used in all the experiments ranged from 28 g to 38 g. […] Administration and measurement. […] Then the samples were centrifuged at 6000 rpm for 5 min, and the ethyl acetate layer was dried under nitrogen. The residue was reconstituted in 25 μL of methanol, and aliquots (5 μL) were injected onto the LC-MS/MS system. Analysis. Pharmacokinetics analysis was performed using SigmaPlot software system (SPSS science, Chicago, Ill.). […] AUC=a/b Where: • C=the total blood concentration at time t • a=the extrapolated zero intercept b=the apparent first-order elimination rate constant
# [5] = system: linoleate and arachidonate derived epoxides and diols; experiment: Urinary oxylipins in angiotensin II infused rats; assay type: in vivo, rat; conditions: ANGII infused Sprague-Dawley rats, subcutaneous injection, urine 24 hr post exposure, LC/MS/MS
# Text: In this example, hypertension was induced in one group of Sprague-Dawley rats by the infusion of angiotensin II (ANGII).
# [6] = Blood concentration after oral administration of 950 and AUDA-nBE, human pharmacokinetic profile; assay type: in vivo
# Experimental: FIG. 16 provides a sample preparation procedure for a pharmacokinetic study. A 5 μl whole blood sample was drawn into a capillary at a specific time point, each sample was extracted and anaylzed by LC/MS-MS. […] AUDA is the active metabolite of AUDA-nBE. […] 0.05 mg/kg. (B). 0.1 mg/kg. […] The compounds were administered at the same time in the same formulation. […] 21 mg (0.3 mg/kg) 950 and AUDA-nBE were orally administrated with starch. (B). 7 mg (0.1 mg/kg) formulated 950 and AUDA-NBE were taken with (HPMC, starch and lactose). (C). […] 950 with HPMC and Starch. (B). 950 in lactose and HPMC. […] HPMC forms a gel which slowly erodes; lactose enhances erosion at it moves through the gut and starch retards it. These formulations are combined, ball milled, and then placed in ‘0’ capsule and not compressed.
# [7] = Oral AUDA butyl ester (800) in a patient with end stage renal disease: clinical chemistry, C reactive protein, blood pressure; assay type: in vivo, human
# Experimental: as §1, with “These” for “Serial bled blood samples (3-50 μL) were collected from finger tips into 50 μL heparinized capillary tube at various time points (0.5, 1, 2, 4, 6, 12 and 24 hr) after administration. These”
# [8] = assay type: in vitro ADME, rat and human
# Text: Both rat and human microsomes were used for the 950 metabolism study.
structure (smiles),measurement,setting,value
"CCCCCCCCCCCCNC(=O)NC1CCCCC1 [Compound 297, 1-cyclohexyl-3-dodecyl urea, reference compound]",IC50,human sEH,0.14 ± 0.01 µM
same,effect on Raynaud's symptoms,[1],reduces severity of Raynaud's symptoms
"O=C(O)CCCCCCCCCCCNC(=O)NC12CC3CC(CC(C3)C1)C2 [Compound 687, 1-(1-adamantyl)-3-(12-dodecanoic acid)urea]",metabolic stability in microsomal preparations,[2],stable
same,"maximum circulating concentration of 687, humans compared with mice",[3],much higher in humans
same,time to reach the maximum concentration,[4],30 min
same,"urinary diol concentrations (DHOMEs, DHETs)",[5],decrease in diol concentrations
same,"urinary epoxides (EpOMEs, EETs)",[5],increase in urinary epoxides
"CCCCOC(=O)CCCCCCCCCCCNC(=O)NC12CC3CC(CC(C3)C1)C2 [Compound 800, 1-(1-Adamantyl)-3-(11-butoxycarbonylundecyl)urea]",Cmax,"[6]; FIG. 23, 7mg each in tristerate (0.1 mg/kg) orally, human",rather high Cmax
same,performance of simple dry formulations,"[6]; FIG. 26, starch, HPMC/starch/lactose or lactose, 0.1-0.3 mg/kg orally",very poorly
same,absorption depending on formulation,"[6]; FIGS. 23 and 26, oral, human, listed as AUDA-BE",only absorbed efficiently in a lipid formulation; also recorded: bioavailable in lipid formulations
same,serum profile of regulatory lipids,"[7]; patient approaching ESRD, brief oral treatment with low doses",altered the serum profile of regulatory lipids in a positive manner
same,Creatinine,"[7]; same trial, ESRD without drug 5.0, normal 0.5-1.3",4.9 mg/dL
CCOCCOCCOCCCCCNC(=O)NC12CC3CC(CC(C3)C1)C2 [Compound 950],T1/2 compared with AUDA-BE,"[6]; human, in vivo, po, 0.1 mg/kg",longer T1/2
same,pharmacokinetics,[6]; in vivo,improved pharmacokinetics
same,major metabolite in vitro,[8],hydroxy metabolite was the major metabolite

# From patent publication US20050164951A1, “Inhibitors for the soluble epoxide hydrolase” (The Regents of the University of California, priority 2003, published 2005)
